Measurements from ChEMBL document CHEMBL4308908, “Lamellarin-inspired potent topoisomerase I inhibitors with the unprecedented benzo[g][1]benzopyrano[4,3-b]indol-6(13H)-one scaffold” (Bioorg Med Chem, 2019).
The source made the active and inactive calls. The calls are words filed in the database; no cut-off is given here.

What was measured:
[1] = tested on: A549; experiment: Antiproliferative activity against human A549 cells after 48 hrs by SRB assay; format: functional; details: A549, 48 h
[2] = tested on: OVCAR-3; experiment: Antiproliferative activity against human OVCAR3 cells after 48 hrs by SRB assay; format: functional; details: OVCAR-3, 48 h
[3] = tested on: OVCAR-5; experiment: Antiproliferative activity against human OVCAR5 cells after 48 hrs by SRB assay; format: functional; details: OVCAR-5, 48 h
[4] = tested on: LOX IMVI; experiment: Antiproliferative activity against human LOXIMVI cells after 48 hrs by SRB assay; format: functional
[5] = tested on: MKN-1; experiment: Antiproliferative activity against human MKN1 cells after 48 hrs by SRB assay; format: functional; details: MKN-1, 48 h
[6] = tested on: PC-3; experiment: Antiproliferative activity against human PC3 cells after 48 hrs by SRB assay; format: functional; details: PC-3, 48 h
[7] = tested on: HCC 2998; experiment: Antiproliferative activity against human HCC2998 cells after 48 hrs by SRB assay; format: functional; details: HCC 2998, 48 h
[8] = tested on: MKN-74; experiment: Antiproliferative activity against human MKN74 cells after 48 hrs by SRB assay; format: functional; details: MKN-74, 48 h
[9] = tested on: NCI-H460; experiment: Antiproliferative activity against human NCI-H460 cells after 48 hrs by SRB assay; format: functional; details: NCI-H460, 48 h
[10] = tested on: DMS-273; experiment: Antiproliferative activity against human DMS273 cells after 48 hrs by SRB assay; format: functional; details: DMS-273, 48 h
[11] = tested on: MCF7; experiment: Antiproliferative activity against human MCF7 cells after 48 hrs by SRB assay; format: functional; details: MCF7, 48 h
[12] = tested on: SNB-78; experiment: Antiproliferative activity against human SNB78 cells after 48 hrs by SRB assay; format: functional; details: SNB-78, 48 h
[13] = Antiproliferative activity against human BSY1 cells after 48 hrs by SRB assay; format: functional; details: BSY-1, 48 h
[14] = tested on: HCT-15; experiment: Antiproliferative activity against human HCT15 cells after 48 hrs by SRB assay; format: functional; details: HCT-15, 48 h
[15] = tested on: ACHN; experiment: Antiproliferative activity against human ACHN cells after 48 hrs by SRB assay; format: functional
[16] = tested on: NCI-H226; experiment: Antiproliferative activity against human NCI-H226 cells after 48 hrs by SRB assay; format: functional; details: NCI-H226, 48 h
[17] = tested on: SNB-75; experiment: Antiproliferative activity against human SNB75 cells after 48 hrs by SRB assay; format: functional; details: SNB-75, 48 h
[18] = tested on: MKN-28; experiment: Antiproliferative activity against human MKN28 cells after 48 hrs by SRB assay; format: functional; details: MKN-28, 48 h
[19] = tested on: KM12; experiment: Antiproliferative activity against human KM12 cells after 48 hrs by SRB assay; format: functional; details: KM12, 48 h
[20] = tested on: DMS-114; experiment: Antiproliferative activity against human DMS114 cells after 48 hrs by SRB assay; format: functional; details: DMS-114, 48 h
[21] = tested on: SF-539; experiment: Antiproliferative activity against human SF539 cells after 48 hrs by SRB assay; format: functional; details: SF-539, 48 h
[22] = tested on: SF-268; experiment: Antiproliferative activity against human SF268 cells after 48 hrs by SRB assay; format: functional; details: SF-268, 48 h
[23] = tested on: MKN-45; experiment: Antiproliferative activity against human MKN45 cells after 48 hrs by SRB assay; format: functional; details: MKN-45, 48 h
[24] = tested on: U-251; experiment: Antiproliferative activity against human U251 cells after 48 hrs by SRB assay; format: functional; details: U-251, 48 h
[25] = tested on: St-4; experiment: Antiproliferative activity against human St-4 cells after 48 hrs by SRB assay; format: functional; details: St-4, 48 h
[26] = tested on: NCI-H522; experiment: Antiproliferative activity against human NCI-H522 cells after 48 hrs by SRB assay; format: functional; details: NCI-H522, 48 h
[27] = tested on: OVCAR-4; experiment: Antiproliferative activity against human OVCAR4 cells after 48 hrs by SRB assay; format: functional; details: OVCAR-4, 48 h
[28] = tested on: MDA-MB-231; experiment: Antiproliferative activity against human MDA-MB-231 cells after 48 hrs by SRB assay; format: functional; details: MDA-MB-231, 48 h
[29] = Antiproliferative activity against human HBC5 cells after 48 hrs by SRB assay; format: functional; details: HBC5, 48 h
[30] = tested on: OVCAR-8; experiment: Antiproliferative activity against human OVCAR8 cells after 48 hrs by SRB assay; format: functional; details: OVCAR-8, 48 h
[31] = tested on: MKN-7; experiment: Antiproliferative activity against human MKN7 cells after 48 hrs by SRB assay; format: functional; details: MKN-7, 48 h
[32] = tested on: HT-29; experiment: Antiproliferative activity against human HT-29 cells after 48 hrs by SRB assay; format: functional; details: HT-29, 48 h
[33] = Antiproliferative activity against human HBC4 cells after 48 hrs by SRB assay; format: functional; details: HBC4, 48 h
[34] = tested on: SF-295; experiment: Antiproliferative activity against human SF295 cells after 48 hrs by SRB assay; format: functional; details: SF-295, 48 h
[35] = tested on: DU-145; experiment: Antiproliferative activity against human DU145 cells after 48 hrs by SRB assay; format: functional; details: DU-145, 48 h
[36] = tested on: NCI-H23; experiment: Antiproliferative activity against human NCI-H23 cells after 48 hrs by SRB assay; format: functional; details: NCI-H23, 48 h
[37] = tested on: HCT-116; experiment: Antiproliferative activity against human HCT116 cells after 48 hrs by SRB assay; format: functional; details: HCT-116, 48 h
[38] = tested on: SK-OV-3; experiment: Antiproliferative activity against human SKOV3 cells after 48 hrs by SRB assay; format: functional; details: SK-OV-3, 48 h
[39] = target: T1, DNA topoisomerase I (Bos taurus) (UniProt F1MN93); experiment: Inhibition of calf thymus DNA topoisomerase 1 assessed as reduction in enzyme-mediated relaxation of supercoiled pBR322 plasmid DNA at 10 uM after 30 mins by ethidium bromide staining-based agarose gel electrophoresis
T1 sequence (whole entry): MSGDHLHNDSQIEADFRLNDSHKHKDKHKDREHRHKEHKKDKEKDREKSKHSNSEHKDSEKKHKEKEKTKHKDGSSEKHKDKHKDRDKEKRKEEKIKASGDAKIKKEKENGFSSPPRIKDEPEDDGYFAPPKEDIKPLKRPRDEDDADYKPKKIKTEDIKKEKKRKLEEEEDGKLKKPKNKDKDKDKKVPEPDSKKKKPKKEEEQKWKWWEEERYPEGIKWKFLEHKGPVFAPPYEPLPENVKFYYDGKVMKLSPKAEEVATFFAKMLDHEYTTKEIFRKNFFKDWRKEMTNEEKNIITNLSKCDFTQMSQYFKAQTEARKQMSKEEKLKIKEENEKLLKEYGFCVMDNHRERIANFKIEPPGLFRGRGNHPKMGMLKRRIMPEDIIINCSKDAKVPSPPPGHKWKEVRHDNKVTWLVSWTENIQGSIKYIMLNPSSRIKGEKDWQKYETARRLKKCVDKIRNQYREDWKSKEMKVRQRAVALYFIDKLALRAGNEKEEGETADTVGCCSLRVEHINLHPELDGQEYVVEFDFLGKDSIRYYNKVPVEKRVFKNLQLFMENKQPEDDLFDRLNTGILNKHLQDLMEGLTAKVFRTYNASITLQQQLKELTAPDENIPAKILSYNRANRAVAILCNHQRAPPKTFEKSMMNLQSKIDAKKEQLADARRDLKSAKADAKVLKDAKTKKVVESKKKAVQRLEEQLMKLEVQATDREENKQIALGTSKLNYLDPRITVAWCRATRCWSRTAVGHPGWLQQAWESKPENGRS

[40] = target: T1, DNA topoisomerase I (Bos taurus); experiment: Inhibition of calf thymus DNA topoisomerase 1 assessed as reduction in enzyme-mediated relaxation of supercoiled pBR322 plasmid DNA at 10 uM after 30 mins by agarose gel electrophoresis
[41] = tested on: RXF 631; experiment: Antiproliferative activity against human RXF631L cells after 48 hrs by SRB assay; format: functional; details: RXF 631, 48 h

COc1cc2c(ccc3c4c(=O)oc5cc(O)c(OC)cc5c4n(C)c23)cc1O
GI50 [1]: 4.17 nM
GI50 [2]: 39.8 nM
GI50 [3]: 79.4 nM
GI50 ([4]; read-out: GI50): 2.6 nM
GI50 ([4]; read-out: pGI50 (converted)): 2.57 nM
GI50 [5]: 37.1 nM
GI50 [6]: 132 nM
GI50 [7]: 39.8 nM
GI50 [8]: 52.5 nM
GI50 [9]: 2.14 nM
GI50 [10]: 2.04 nM
GI50 ([11]; read-out: GI50): 9.6 nM
GI50 ([11]; read-out: pGI50 (converted)): 9.55 nM
GI50 [12]: 200 nM
GI50 [13]: 33.9 nM
GI50 [14]: 162 nM
GI50 ([15]; read-out: GI50): < 1 nM
GI50 ([15]; read-out: pGI50 (converted)): 1 nM
GI50 [16]: 89.1 nM
GI50 [17]: 8.13 nM
GI50 ([18]; read-out: GI50): 33 nM
GI50 ([18]; read-out: pGI50 (converted)): 33.1 nM
GI50 [19]: 46.8 nM
GI50 [20]: 3.89 nM
GI50 [21]: 2.82 nM
GI50 [22]: 2.19 nM
GI50 [23]: 32.4 nM
GI50 ([24]; read-out: GI50): 1.3 nM
GI50 ([24]; read-out: pGI50 (converted)): 1.32 nM
GI50 [25]: 10 µM
GI50 ([26]; read-out: GI50): 1.8 nM
GI50 ([26]; read-out: pGI50 (converted)): 1.82 nM
GI50 [27]: 26.9 nM
GI50 [28]: 115 nM
GI50 [29]: 95.5 nM
GI50 [30]: 20.4 nM
GI50 [31]: 45.7 nM
GI50 [32]: 3.89 µM
GI50 [33]: 13.5 nM
GI50 [34]: 4.57 nM
GI50 ([35]; read-out: GI50): 2.5 nM
GI50 ([35]; read-out: pGI50 (converted)): 2.51 nM
GI50 [36]: 4.57 nM
GI50 ([37]; read-out: GI50): 8.8 nM
GI50 ([37]; read-out: pGI50 (converted)): 8.91 nM
GI50 ([38]; read-out: GI50): 9.4 nM
GI50 ([38]; read-out: pGI50 (converted)): 9.33 nM
inhibition [39]: Active
inhibition [40]: Active
GI50 [41]: 4.68 µM
